Data reported in ChEMBL document CHEMBL6092147, “Design of inhibitors of SARS-CoV-2 papain-like protease deriving from GRL0617: Structure-activity relationships” (Bioorg Med Chem, 2024).

Experiment: Inhibition of SARS-CoV-2 wild type papain-like protease (PLpro) C111S mutant extracted from Escherichia coli using LKGG-AMC as substrate incubated for 60 mins by fluorescence based analysis
Set-up: species or system Severe acute respiratory syndrome coronavirus 2

Row | SMILES | IC50 [µM]
1 | Cc1ccc(NC(=O)NC(N)=O)cc1C(=O)N[C@H](C)c1cccc2ccccc12 | 5.1
2 | CCC(=O)Nc1ccc(C)c(C(=O)N[C@H](C)c2cccc3ccccc23)c1 | 6.4
